Experimental data published in patent US8445409B2, “Use of 5-benzyloxymethyl-1,2-isoxazoline derivatives as a herbicide” (Moghu Research Center Ltd., priority 2007, dated 2013).
Entries after “also recorded” stand apart in the source; their conditions may differ.

Legend:
Indian joint-vetch = assay: Upland pot test, pre-/post-emergence spray, visual rating; type: in vivo, Indian joint-vetch (AESIN); settings: 2 weeks after spray, 0-10 scale (10=completely killed)
Excerpt: (§1) To a rectangular plastic pot having a surface area of 300 cm^2, mixed soils including blend bed soil (Boonong, Horticultural Bed Soil No. 3) and sandy loam soil were filled (mixing ratio, 1:1). Seeds of the eight different types of weeds including gramineous weed such as barnyardgrass, large crabgrass, green foxtail, fall panicum, and broadleaf weed such as common cocklebur, velvetleaf, Indian joint-vetch, and morningglory were sown. To the other pot containing the same soil mixture, seeds of the five different types of crops including corn, soybean, cotton, wheat and rice were sown. Pots were kept in a greenhouse of which temperature was maintained at 25˜30° C. (day) or 15˜25° C. (night), and regularly watered.
(§2) After fourteen days and when the crops and the weeds reached their three-leaf stage, the other set of a crop pot and a weed pot were prepared by the same method as described above. Then, “test substance” was sprayed thereto. In this case, spray treatment to the plants after they have grown for two weeks corresponded to post-emergence treatment while spray treatment to the seeds right after the sowing corresponded to pre-emergence treatment. Spray was carried out by using a track sprayer (R&D Sprayer, USA) equipped with a Teejet 8002 nozzle (Spraying Systems Co., USA). Spray volume was adjusted to 300 L/ha. The spray solution was prepared by dissolving the “test substance” in acetone and adding the same volume of 0.2% (v/v) Tween 20 aqueous solution. Dosage of the test substance was 500, 250, 125, 62.5 or 31.3 g/ha. Two weeks after the spray of the test substance, efficacy and phytotoxic effect to the crops and the weeds were visually measured based on a 0 to 10 scale (0: no efficacy, 10: completely killed).

[1] = system: broadleaf weeds such as common cocklebur, Indian joint-vetch, velvetleaf, morningglory; assay: Upland pot test, broadleaf weeds as a group; type: in vivo
Excerpt: as §1, §2

Bentgrass = assay: Turfgrass safety test (sod mat pots), visual phytotoxicity; type: in vivo; settings: in vivo
Excerpt: (§3) Commercially available sod mats of zoysiagrass and bentgrass, Kentucky bluegrass, and perennial ryegrass were purchased. After cutting each turf sod mat in a size of 10 cm×20 cm, it was transplanted to a rectangular plastic pot having a surface area of 300 cm^2 wherein mixed soils including blend of a bed soil (Boonong, Horticultural Nursery Soil No. 3) and sandy loam soil were filled (mixing ratio, 1:1). After transplanting, the grass was mowed (0.5˜1.0 cm in height) once a week, and kept for one month in a greenhouse maintained at 25˜30° C. (day) or 15˜25° C. (night), then the test substance of the present invention was applied at dosage of 4, 2, 1 and 0.5 kg/ha. As a reference, Dithiopyr (32% EC, manufactured by Dongbu Hannong Chemical Company, KOREA) was applied at the recommended rate of 0.48 kg/ha, or twice or quadruple amount thereof, i.e., 0.96 and 1.92 kg/ha, respectively. Spray was made by a track sprayer equipped with a Teejet 8002 nozzle. Spray volume was adjusted to 2,000 L/ha, which was a typical value for an Asian (Korea and Japan) golf course. The spray solution was prepared by dissolving the “test substance” in acetone and adding the same volume of 0.2% (v/v) Tween 20 aqueous solution. Two, four or six weeks after the spray of the test substance, phytotoxicity to the turfgrass were visually evaluated based on 0 to 10 scale (0: no phytotoxic effect, 10: completely killed). The test was conducted in a randomized block design with a three replicates and the results were summarized in the following Table 2 is an average value of the replicates.

Perennial ryegrass = assay: as above; type: in vivo; settings: in vivo
Excerpt: as §3

Kentucky bluegrass = assay: as above; type: in vivo; settings: in vivo
Excerpt: as §3

turfgrasses = assay: Example 3-1, turfgrasses as a group; type: in vivo; settings: 2 kg/ha or below
Excerpt: Commercially available sod mats of zoysiagrass and bentgrass, Kentucky bluegrass, and perennial ryegrass were purchased. After cutting each turf sod mat in a size of 10 cm×20 cm, it was transplanted to a rectangular plastic pot having a surface area of 300 cm^2 wherein mixed soils including blend of a bed soil (Boonong, Horticultural Nursery Soil No. 3) and sandy loam soil were filled (mixing ratio, 1:1). After transplanting, the grass was mowed (0.5˜1.0 cm in height) once a week, and kept for one month in a greenhouse maintained at 25˜30° C. (day) or 15˜25° C. (night). Then three strips of 1 cm width were removed by excision with a scissor. The open space was filled with a new soil, and seeds of large crabgrass, annual bluegrass, or goosegrass were sown. The pots were kept in a greenhouse. When the said weeds were grown up to the 3 leaf stage, another set was prepared in the same method. The first set represented post-emergence (POST) and the second set represented pre-emergence (PRE) stages of the weeds (large crabgrass, annual bluegrass, goosegrass). Then the test compound was applied at 0.25, 0.5. 1.0, 2.0, and 4.0 kg/ha. […] Four weeks after the spray of the test substance, phytotoxicity to the turfgrass and herbicidal activity to the said weeds were visually evaluated based on 0 to 100 scale (0: no phytotoxic effect, 100: completely killed). […]

[2] = system: all types of the turfgrasses; assay: Turfgrass safety test, all turfgrasses as a group; type: in vivo
Excerpt: as §3

[3] = system: crops such as corn, rice, wheat, soybean and cotton; assay: Upland pot test, crops as a group; type: in vivo; settings: pre-emergence, 500 g/ha
Excerpt: as §1
After fourteen days and when the crops and the weeds reached their three-leaf stage, the other set of a crop pot and a weed pot were prepared by the same method as described above. Then, “test substance” was sprayed thereto. In this case, spray treatment to the plants after they have grown for two weeks corresponded to post-emergence treatment while spray treatment to the seeds right after the sowing corresponded to pre-emergence treatment. […] Two weeks after the spray of the test substance, efficacy and phytotoxic effect to the crops and the weeds were visually measured based on a 0 to 10 scale (0: no efficacy, 10: completely killed).

Velvetleaf = assay: Upland pot test, pre-/post-emergence spray, visual rating; type: in vivo, velvetleaf (ABUTH); settings: 2 weeks after spray, 0-10 scale (10=completely killed)
Excerpt: as §1, §2

[4] = post-emergence foliar spray at three leaf stage, 31.2 g/ha
[5] = post-emergence foliar spray at three leaf stage, 62.5 g/ha
[6] = post-emergence foliar spray at three leaf stage, 125 g/ha
[7] = post-emergence foliar spray at three leaf stage, 250 g/ha
[8] = post-emergence foliar spray at three leaf stage, 500 g/ha
[9] = pre-emergence soil treatment, 31.2 g/ha
[10] = pre-emergence soil treatment, 62.5 g/ha
[11] = pre-emergence soil treatment, 125 g/ha
[12] = pre-emergence soil treatment, 250 g/ha
[13] = pre-emergence soil treatment, 500 g/ha

Compound: Cc1ccsc1C1=NOC(C)(COCc2c(F)cccc2F)C1 (stereo not shown) [test substance, 5-(2,6-difluorobenzyl)oxymethyl-5-methyl-3-(4-methylthiophen-5-yl)-1,2-isoxazoline]
- Visual measurement: Broadleaf weed, Indian joint-vetch (Indian joint-vetch; [4]): 0
- Visual measurement: Broadleaf weed, Indian joint-vetch (Indian joint-vetch; [5]): 1
- Visual measurement: Broadleaf weed, Indian joint-vetch (Indian joint-vetch; [6]): 2
- Visual measurement: Broadleaf weed, Indian joint-vetch (Indian joint-vetch; [7]): 3
- Visual measurement: Broadleaf weed, Indian joint-vetch (Indian joint-vetch; [8]): 4
- Visual measurement: Broadleaf weed, Indian joint-vetch (Indian joint-vetch; [9]): 0
- Visual measurement: Broadleaf weed, Indian joint-vetch (Indian joint-vetch; [10]): 0
- Visual measurement: Broadleaf weed, Indian joint-vetch (Indian joint-vetch; [11]): 0
- Visual measurement: Broadleaf weed, Indian joint-vetch (Indian joint-vetch; [12]): 0
- Visual measurement: Broadleaf weed, Indian joint-vetch (Indian joint-vetch; [13]): 0
- Control of broadleaf weeds (in words) ([1]; post-emergence application, 500 g/ha): well controlled
- Control of broad-leaf weeds (in words) ([1]; post-emergence treatment at three-leaf stage, FIG. 2): somewhat controlled showing a mild suppression effect
- Effect on broadleaf weeds (in words) ([1]; pre-emergence treatment, FIG. 1): almost no effect; also recorded: not affected
- Phytotoxic effect, visual assessment: Bentgrass Week 2 (Bentgrass): 2.3
- Phytotoxic effect, visual assessment: Bentgrass Week 4 (Bentgrass): 3.0
- Phytotoxic effect, visual assessment: Perennial ryegrass Week 2 (Perennial ryegrass): 3.0
- Phytotoxic effect, visual assessment: Perennial ryegrass Week 4 (Perennial ryegrass): 2.7
- Phytotoxic effect, visual assessment: Perennial ryegrass Week 6 (Perennial ryegrass): 2.0
- Safety to perennial ryegrass (in words) (Perennial ryegrass): safe
- Phytotoxic effect, visual assessment: Kentucky bluegrass Week 6 (Kentucky bluegrass; Kentucky bluegrass, 6 weeks): 0.0
- Phytotoxic effect, visual assessment: Kentucky bluegrass Week 6 (Kentucky bluegrass): 1.0
- Safety to Kentucky bluegrass (in words) (Kentucky bluegrass): safe
- Visible injury to turfgrasses (in words) (turfgrasses): did not show any visible injury
- Phytotoxicity to turfgrasses (in words) ([2]; 1~2 kg/ha, compared to Dithiopyr at 0.48 kg/ha): negligible phytotoxicity
- Safety to all types of the turfgrasses (in words) ([2]; 4 kg/ha): excellent safety
- Phytotoxic effect to turfgrasses (in words) ([2]; dosage the same or less than 0.5 kg/ha): almost no phytotoxic effect
- Phytotoxic effect to crops (in words) [3]: completely safe without any phytotoxic effect
- Visual measurement: Broadleaf weed, Velvetleaf (Velvetleaf; [4]): 0
- Visual measurement: Broadleaf weed, Velvetleaf (Velvetleaf; [5]): 0
- Visual measurement: Broadleaf weed, Velvetleaf (Velvetleaf; [6]): 1
- Visual measurement: Broadleaf weed, Velvetleaf (Velvetleaf; [7]): 3
- Visual measurement: Broadleaf weed, Velvetleaf (Velvetleaf; [8]): 6
- Visual measurement: Broadleaf weed, Velvetleaf (Velvetleaf; [9]): 0
- Visual measurement: Broadleaf weed, Velvetleaf (Velvetleaf; [10]): 0
- Visual measurement: Broadleaf weed, Velvetleaf (Velvetleaf; [11]): 0
- Visual measurement: Broadleaf weed, Velvetleaf (Velvetleaf; [12]): 0
- Visual measurement: Broadleaf weed, Velvetleaf (Velvetleaf; [13]): 0
